Experimental findings from paper PMC10856196 (Molecules, 2024) are described below.

For orientation: Emax means the maximal effect, on the per cent scale that the assay sets.

The target in assay [1] is T1, human MOP receptor (Opioid Receptor Mu 1) (Homo sapiens, UniProt P35372).
T1 construct: gene OPRM1; human MOP receptor with linked TEV protease site (Tango OPRM1-bla U2OS)
As to the kind of experiment: Tango β-arrestin recruitment in U2OS cells, antagonist mode against DAMGO EC80, two concentrations only. The class given is cell-based. To be noted: read-out: % Emax at 10 μM (relative to β-funaltrexamine).

Assay [2] has as its target T1, human MOP receptor (Opioid Receptor Mu 1). In words: Tango β-arrestin recruitment in U2OS cells, antagonist mode against DAMGO EC80; reference antagonist. The class given is cell-based. For orientation: Recruitment of arrestin is a read-out of receptor activation apart from second messengers.

T1 sequence (P35372 whole entry): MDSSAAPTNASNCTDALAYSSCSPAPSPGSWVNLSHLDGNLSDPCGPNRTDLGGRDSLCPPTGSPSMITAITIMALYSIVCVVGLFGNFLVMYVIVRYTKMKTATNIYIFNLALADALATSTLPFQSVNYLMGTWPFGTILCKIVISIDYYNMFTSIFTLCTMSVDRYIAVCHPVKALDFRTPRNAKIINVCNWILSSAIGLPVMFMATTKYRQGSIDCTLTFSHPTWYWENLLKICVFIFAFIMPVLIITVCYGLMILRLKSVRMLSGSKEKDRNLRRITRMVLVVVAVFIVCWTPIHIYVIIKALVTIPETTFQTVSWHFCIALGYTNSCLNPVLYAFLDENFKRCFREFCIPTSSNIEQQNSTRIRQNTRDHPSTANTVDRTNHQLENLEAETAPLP

For the compound `Cc1ccc(N2CCN=C2NC(=O)NC(C)CCc2ccc(F)cc2)cc1` (centres unmarked) [7i, 1-[1-(4-methylphenyl)imidazolin-2-yl]-3-[4-(4-fluorophenyl)but-2-yl]urea], in assay [1], the Emax at 10 µM was determined as 48%.
In assay [2], `COC(=O)/C=C/C(=O)N[C@@H]1CC[C@@]2(O)[C@H]3Cc4ccc(O)c5c4[C@@]2(CCN3CC2CC2)[C@H]1O5` [β-Funaltrexamine] yielded a maximal response (Emax) at 10 µM of 100%.
